Values of other authors as cited in US20070161683A1, “Certain chemical entities, compositions, and methods” (priority 2005, published 2007).

system: A549 cells; conditions: concentration that decreases the rate of cell growth by fifty percent

SMILES | GI50
O=c1[nH]cc(F)c(=O)[nH]1 [5-fluorouracil] | 1000 nM
COc1cccc2c1C(=O)c1c(O)c3c(c(O)c1C2=O)C[C@@](O)(C(=O)CO)C[C@@H]3O[C@H]1C[C@H](N)[C@H](O)[C@H](C)O1 [doxorubicin] | 63 nM
NC(=O)NO [hydroxyurea] | 500000 nM
CC(=O)O[C@H]1C(=O)[C@@]2(C)[C@H]([C@H](OC(=O)c3ccccc3)[C@]3(O)C[C@H](OC(=O)[C@H](O)[C@@H](NC(=O)c4ccccc4)c4ccccc4)C(C)=C1C3(C)C)[C@]1(OC(C)=O)CO[C@@H]1C[C@@H]2O [paclitaxel] | 4 nM
